Experimental data taken from patent US11566007B2, “Ras inhibitors” (Revolution Medicines, Inc., priority 2019, dated 2023).

Tests used:
[1] = test system: NCI-H358 cells (K-Ras G12C); test: Potency assay: pERK in NCI-H358 cells; format: cell-based, human; details: Homo sapiens, NCI-H358; H358 KRAS G12C; read-out: pERK EC50
In short: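 Inhibition of cellular pERK after a 4 h treatment, detected by AlphaLISA or In-Cell Western. IC50 from a four-parameter concentration-response fit.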

[2] = biological target: K-Ras G13C (Homo sapiens (Human), UniProt P01116+P62937, G13C); test: Ras-Raf (BRAF RBD) disruption / FRET / MOA assay, KRAS G13C; format: biochemical; details: KRAS G13C; Ras-Raf disruption/FRET/MOA assay; read-out: IC50* KRAS G13C FRET data
Sequence of K-Ras G13C (P01116-2 other isoform, or with tags, fused parts or gaps G13C): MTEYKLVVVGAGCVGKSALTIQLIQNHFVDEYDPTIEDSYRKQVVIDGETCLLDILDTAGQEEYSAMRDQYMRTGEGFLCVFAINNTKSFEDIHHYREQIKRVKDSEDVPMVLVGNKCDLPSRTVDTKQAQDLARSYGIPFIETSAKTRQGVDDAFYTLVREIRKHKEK
Sequence of K-Ras G13C (P62937 whole entry): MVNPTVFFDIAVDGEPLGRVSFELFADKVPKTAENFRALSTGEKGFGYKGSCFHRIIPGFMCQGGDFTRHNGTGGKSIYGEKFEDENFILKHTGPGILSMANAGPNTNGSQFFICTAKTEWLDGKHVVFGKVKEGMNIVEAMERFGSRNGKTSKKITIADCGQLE
In short: (§1)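 Compounds, top final concentration 30 μM in 10-point 3-fold series, incubated 3 hours at 25° C with nucleotide-loaded Ras, cyclophilin A and BRAF RBD.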

[3] = biological target: KRAS G12S (Homo sapiens (Human), UniProt P01116+P62937, G12S); test: Ras-Raf (BRAF RBD) disruption / FRET / MOA assay, KRAS G12S; format: biochemical; details: Ras-Raf disruption/FRET/MOA assay; class symbols; read-out: KRAS G12S FRET data IC50
Sequence of KRAS G12S (P01116-2 other isoform, or with tags, fused parts or gaps G12S): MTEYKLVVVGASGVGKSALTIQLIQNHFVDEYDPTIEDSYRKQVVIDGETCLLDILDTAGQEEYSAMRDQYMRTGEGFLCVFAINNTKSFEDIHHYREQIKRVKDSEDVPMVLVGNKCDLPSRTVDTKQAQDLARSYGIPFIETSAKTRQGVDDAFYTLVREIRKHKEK
Sequence of KRAS G12S (P62937 whole entry): as the sequence (P62937 whole entry) above
In short: as §1

[4] = biological target: KRAS WT (Homo sapiens (Human), UniProt P01116+P62937); test: Ras-Raf (BRAF RBD) disruption / FRET / MOA assay, KRAS WT; format: biochemical; details: read-out: IC50* KRAS WT FRET data
Sequence of KRAS WT (P01116-2 other isoform, or with tags, fused parts or gaps): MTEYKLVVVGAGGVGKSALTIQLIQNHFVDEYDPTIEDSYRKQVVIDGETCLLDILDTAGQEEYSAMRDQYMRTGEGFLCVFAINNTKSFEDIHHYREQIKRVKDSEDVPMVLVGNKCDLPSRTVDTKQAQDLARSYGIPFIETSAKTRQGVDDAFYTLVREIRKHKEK
Sequence of KRAS WT (P62937 whole entry): as the sequence (P62937 whole entry) above
In short: as §1

[5] = biological target: KRAS G13D (Homo sapiens (Human), UniProt P01116+P62937, G13D); test: Ras-Raf (BRAF RBD) disruption / FRET / MOA assay, KRAS G13D; format: biochemical; details: read-out: IC50* KRAS G13D FRET data
Sequence of KRAS G13D (P01116-2 other isoform, or with tags, fused parts or gaps G13D): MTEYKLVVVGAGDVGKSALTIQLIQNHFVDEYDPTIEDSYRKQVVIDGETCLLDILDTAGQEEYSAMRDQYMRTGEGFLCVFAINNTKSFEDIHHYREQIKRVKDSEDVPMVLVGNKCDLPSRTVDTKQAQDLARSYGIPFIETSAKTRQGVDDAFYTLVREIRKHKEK
Sequence of KRAS G13D (P62937 whole entry): as the sequence (P62937 whole entry) above
In short: as §1

[6] = biological target: NRAS G12C (Homo sapiens (Human), UniProt P01111+P62937, G12C); test: Ras-Raf (BRAF RBD) disruption / FRET / MOA assay, NRAS G12C; format: biochemical; details: read-out: IC50* NRAS G12C FRET data
Sequence of NRAS G12C (P01111 whole entry G12C): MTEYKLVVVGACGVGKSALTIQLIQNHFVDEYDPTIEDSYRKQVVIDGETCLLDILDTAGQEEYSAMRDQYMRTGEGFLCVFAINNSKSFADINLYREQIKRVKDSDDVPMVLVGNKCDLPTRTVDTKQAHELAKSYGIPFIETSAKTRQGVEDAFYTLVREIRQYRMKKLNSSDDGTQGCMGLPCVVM
Sequence of NRAS G12C (P62937 whole entry): as the sequence (P62937 whole entry) above
In short: as §1

[7] = biological target: NRAS Q61K (Homo sapiens (Human), UniProt P01111+P62937, Q61K); test: Ras-Raf (BRAF RBD) disruption / FRET / MOA assay, NRAS Q61K; format: biochemical; details: NRAS Q61K; Ras-Raf disruption/FRET/MOA assay; read-out: IC50* NRAS Q61K FRET data
Sequence of NRAS Q61K (P01111 whole entry Q61K): as the sequence (P01111 whole entry G12C) above, with C12G, Q61K counted along it
Sequence of NRAS Q61K (P62937 whole entry): as the sequence (P62937 whole entry) above
In short: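 TR-FRET disruption of nucleotide-loaded Ras binding to BRAF RBD via compound-driven ternary complex with cyclophilin A. Compound as 10-point 3-fold series from 30 μM final, 3 h at 25° C, then anti-His Eu-W1024 (10 nM) and anti-GST allophycocyanin (50 nM) for 1.5 h. IC50 from decreased FRET ratio versus DMSO.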

Row | SMILES | EC50 [1] [nM] | IC50 [2] [nM] | IC50 [3] [nM] | IC50 [4] [nM] | IC50 [5] [nM] | IC50 [6] [nM] | IC50 [7] [nM]
1 | C=C(OC)C(=O)N1CC2(CCN(C(=O)N(C)[C@H](C(=O)N[C@H]3Cc4nc(cs4)-c4ccc5c(c4)c(c(-c4cccnc4[C@H](C)OC)n5CC)CC(C)(C)COC(=O)[C@@H]4CCCN(N4)C3=O)C(C)C)CC2)C1 (atropisomer, axis not shown) [Example A681] | < 5000 | 100 to 1000 | 100 to 1000 | 100 to 1000 | 100 to 1000 | 10 to 100 | 10 to 100
2 | C=CC(=O)N1CC[C@H](C(=O)N(C)[C@H](C(=O)N[C@H]2Cc3cccc(c3)-c3ccc4c(c3)c(c(-c3cccnc3[C@H](C)OC)n4CC(F)(F)F)CC(C)(C)COC(=O)[C@@H]3CCCN(N3)C2=O)C(C)C)C1 (atropisomer, axis not shown) [Example A332] | < 5000 | 100 to 1000 | 1000 to 10000 | 1000 to 10000 | 1000 to 10000 | 10 to 100 | 1000 to 10000
3 | C=CC(=O)C1CC[C@H](C(=O)N(C)[C@H](C(=O)N[C@H]2Cc3cc(O)cc(c3)-c3ccc4c(c3)c(c(-c3cnn(C)c3[C@H](C)OC)n4CC)CC(C)(C)COC(=O)[C@@H]3CCCN(N3)C2=O)C(C)C)C1 (some centres unmarked) [Example A166] | < 5000 | 100 to 1000 | 100 to 1000 | 100 to 1000 | 1000 to 10000 | 10 to 100 | 1000 to 10000
4 | CCn1c(-c2cccnc2[C@H](C)OC)c2c3cc(ccc31)-c1cccc(c1)C[C@H](NC(=O)[C@H](C(C)C)N1CO[C@@]3(CCN(C(=O)/C=C/CN(C)C)C3)C1=O)C(=O)N1CCC[C@H](N1)C(=O)OCC(C)(C)C2 (atropisomer, axis not shown) [Example A558] | < 5000 | 100 to 1000 | 100 to 1000 | 100 to 1000 | 100 to 1000 | 10 to 100 | 1000 to 10000
5 | C=CC(=O)N1CCC(F)(C(=O)N(C)[C@H](C(=O)N[C@H]2Cc3nc(cs3)-c3ccc4c(c3)c(c(-c3cccnc3[C@H](C)OC)n4CC)CC(C)(C)COC(=O)[C@@H]3CCCN(N3)C2=O)C(C)C)CC1 (atropisomer, axis not shown) [Example A700] | < 5000 | 100 to 1000 | 100 to 1000 | 100 to 1000 | 100 to 1000 | 10 to 100 | 100 to 1000
6 | CCn1c(-c2cccnc2[C@H](C)OC)c2c3cc(ccc31)-c1csc(n1)C[C@H](NC(=O)[C@H](C(C)C)N(C)C(=O)N1CCC3(CC1)CN(C(=O)/C=C/CN1CCCCC1)C3)C(=O)N1CCC[C@H](N1)C(=O)OCC(C)(C)C2 (atropisomer, axis not shown) [Example A670] | < 5000 | 100 to 1000 | 100 to 1000 | 100 to 1000 | 100 to 1000 | 100 to 1000 | 100 to 1000
7 | CCn1c(-c2cccnc2[C@H](C)OC)c2c3cc(ccc31)-c1cccc(c1)C[C@H](NC(=O)[C@H](C(C)C)N1CO[C@]3(CCN(C(=O)C#CC(C)(C)N4CCC4)C3)C1=O)C(=O)N1CCC[C@H](N1)C(=O)OCC(C)(C)C2 (atropisomer, axis not shown) [Example A351] | < 5000 | 100 to 1000 | 100 to 1000 | 100 to 1000 | 1000 to 10000 | < 10 | 1000 to 10000
8 | CO[C@@H](C)c1ncccc1-c1c2c3nc(ccc3n1CC(F)(F)F)-c1cccc(c1)C[C@H](NC(=O)[C@@H](COC1CN(C(=O)C#CC(C)(C)N(C)C)C1)C(C)C)C(=O)N1CCC[C@H](N1)C(=O)OCC(C)(C)C2 (atropisomer, axis not shown) [Example A724] | < 5000 | > 10000 | > 10000 | > 10000 | > 10000 | 10 to 100 | > 10000
